Here are results for four compounds from PMC11241769, “Comprehensive Characterization of Phytochemical Composition, Membrane Permeability, and Antiproliferative Activity of Juglans nigra Polyphenols” (International Journal of Molecular Sciences, 2024).

One data set concerns cell culture. More on the design: method as in PMID 34217043. Conditions: read-out: concentration causing 50% inhibition; depending on cell culture; cited from earlier work.
Data set [1] can be described thus: PAMPA-BBB (parallel artificial membrane permeability assay, porcine polar brain lipid extract). Conditions: for Papp at 4 h, 100 µM: pig, PAMPA, pH 7.4, read-out: logPe PAMPA-BBB (n = 9) (converted). It is filed as in vitro ADME. Here is the method: (§1) For the PAMPA-BBB test, 5 μL of porcine polar brain lipid extract (PBLE) solution (16.0 mg PBLE + 8.0 mg cholesterol dissolved in 600.0 μL n-dodecane) was applied for each well of the 96-well polycarbonate-based filter donor plates (top plate) (Multiscreen™-IP, MAIPN4510, pore size 0.45 μm; Merck). For the PAMPA-GI assay, the wells of the top plate were coated with 5 μL of the mixture of 16.0 mg phosphatidylcholine + 8.0 mg cholesterol dissolved in 600.0 μL n-dodecane. A measure of 150.0 μL of aliquots of the filtrated donor solutions were placed on the membrane. The 96-well PTFE acceptor plates (bottom plates) (Multiscreen Acceptor Plate, MSSACCEPTOR; Merck), were filled with 300.0 μL buffer solution (0.01 M PBS buffer, pH 7.4). The donor plate was placed upon the acceptor plate, and both plates were incubated together at 37 °C for 4 h in a Heidolph Titramax 1000 Vibrating platform shaker (Heidolph, Schwabach, Germany).
(§2) After incubation, sandwich plates were separated and the concentrations of each compound in the starting donor solution and in the acceptor and donor wells were determined in triplicate by UHPLC-DAD method described above. […] The effective permeability and the membrane retention in the PAMPA-BBB and the PAMPA GI experiments were calculated by Equations (4)–(7), respectively:(4) Pe=−2.303/A(t−τSS)·VA·VD/VA+VD·lg1−VA+VD/1−MR·VD×CAt/CD0 (5) Pe=−2.303/A(t−τSS)·1/1+ra·lg−ra+1+ra/1−MR×CDt/CD0 where Pe is the effective permeability coefficient (cm/s), A is the filter area (0.24 cm^2), VD and VA are the volumes in the donor (0.15 cm^3) and acceptor phases (0.30 cm^3), t is the incubation time (s), τSS is the time (s) to reach steady-state (240 s), CD(t) is the concentration (mol/cm^3) of the compound in the donor phase at time t, CD(0) is the concentration (mol/cm^3) of the compound in the donor phase at time 0, and MR is the estimated membrane retention factor (the estimated mole fraction of solute lost to the membrane), ra is the sink asymmetry ratio (gradient-pH-induced), defined as:(6) ra=VD/VA×Pe(A→D)/Pe(D→A) (7) MR=1−CDt/CD0−VA/VDCAt/CD0
(§3) All experiments were performed in three triplicates on three consecutive days (n = 9), caffeine standard was used as positive, while rutin as negative control. ClogP values were calculated by ChemAxon Marvin 22.3.
On the technique in general: In PAMPA a lipid-coated filter parts donor from acceptor wells.

The test system of data set [2] is MDA-MB 231, A2058, HT-29 and Vero E6 cells. Kind of data set: in vitro cytostasis, Alamar Blue assay, cell lines taken together. It is filed as cell-based. As to conditions: tumor cell lines (MDA-MB 231, A2058, HT-29). Here is the method:
(§4) For the evaluation of the in vitro antiproliferative activity of the compounds, the cell viability was determined by resazurin (Alamar Blue) assay on MDA-MB 231 breast carcinoma, A2058 melanoma, and HT-29 colon carcinoma cell culture. The control wells were treated only with serum-free medium.
(§5) To determine the selectivity, we assessed the compounds on the Vero E6 non-tumorous kidney cells from African green monkeys (C. sabaeus), and their cytostatic activity was determined (Table 3).
(§6) The cytostatic effect of the compounds was studied on tumor cell cultures in vitro. MDA-MB-231 human breast adenocarcinoma cells were cultured in DMEM medium supplemented with 10% FBS, 2 mM L-glutamine, penicillin–streptomycin antibiotics mixture (50 IU/mL, and 50 μg/mL, respectively), 1 mM sodium pyruvate, and 1% non-essential amino acid mixture. A2058 human melanoma cells, and HT-29 colorectal carcinoma cells were cultured in RPMI medium supplemented with 10% FBS, 2 mM L-glutamine, and penicillin–streptomycin antibiotics mixture (50 IU/mL and 50 μg/mL, respectively). Cell lines were generous gifts from Dr. József Tóvári (Department of Experimental Pharmacology, National Institute of Oncology, Budapest, Hungary).
(§7) For the selectivity study, a non-human primate cell culture was used. Vero E6 cells were established from kidney tissue sampled from an African green monkey (C. sabaeus) They originated from a primary culture initiated in March 1962 by Yoshihiro Yasumura at Chiba University in Japan. Vero E6 cells were obtained from the European Collection of Authenticated Cell Cultures (ECACC 85020206) and maintained in DMEM high-glucose (4.5 g/L) medium (Lonza, Basel, Switzerland) containing 10% FBS (Gibco, Thermo Fisher Scientific) and supplemented with 2 mM of L-glutamine (Lonza), 1 mM sodium pyruvate (Merck), and CellCultureGuard (PanReacApplichem, ITW Reagents, Darmstadt, Germany) at 37 °C in a humidified atmosphere of 5% CO2.
(§8) All cell cultures were maintained at 37 °C in a humidified atmosphere with 5% CO2. The cells were grown to confluence and then divided into 96-well tissue culture plates with the initial cell number of 5.0 × 10^3 cells/well. […] Control cells were treated with serum-free medium or DMSO (c = 1.0 v/v %) at the same conditions. After this incubation period, cells were washed twice with serum-free medium, and following that, they were cultured for another 72 h in a 10% serum-containing medium at 37 °C. After that, cell viability was determined using the Alamar Blue assay. Alamar Blue is a non-toxic, resazurin-based dye that living cells reduce to a fluorescent molecule, resorufin [99]. Resazurin sodium salt (Merck, Darmstadt, Germany) was dissolved in PBS at c = 0.15 mg/mL, pH 7.4). A measure of 22 uL of the dye was added to each well and incubated at 37 °C for 3 h until the pink color of the reduced dye appeared. Fluorescence intensity in each well was measured using a Synergy H4 multimode microplate reader (BioTek, Winooski, VT); at λex = 530/30 and λem = 610/10 nm.
(§9) The cytostasis values were expressed in the percentage of untreated control.
On the technique in general: Alamar Blue is a resazurin reagent that responds to reducing activity.

Data set [3] in a line: PAMPA-GI (parallel artificial membrane permeability assay, phosphatidylcholine membrane). It is filed as in vitro ADME. Conditions: for Papp at 4 h, 100 µM: PAMPA, read-out: logPe PAMPA-GI (n = 9) (converted). Here is the method:
as §1, §2, §3

The test system of data set [4] is Vero E6 non-tumorous kidney cells. Description: selectivity study: cytostatic activity on non-tumorous Vero E6 cells, Alamar Blue assay. As to conditions: Vero E6 non-tumorous kidney cells; for IC50: Chlorocebus sabaeus, Vero C1008, in vitro cytostatic activity, Alamar Blue assay, read-out: IC50 (µM) VERO E6 Non Tumorous. It is filed as cell-based, African green monkey (C. sabaeus). Here is the method: as §5, §7, §8, §9

A short description of data set [5]: chemical stability in the aqueous solutions/buffer of the PAMPA experiments (UHPLC-DAD). Here is the method: Quantities of the isolated compounds in the PAMPA experiments (14, 58, 74, 86, 92, 106, 141, and 143) were determined by UHPLC-DAD. The Juglans extracts were analyzed by an ACQUITY UPLC H-Class PLUS System equipped with a quaternary solvent delivery pump (QSM), an auto-sampler manager (FTN), a column compartment (CM), and a photodiode array (PDA) detector (Waters Corporation). An Acquity BEH C18 column (100 × 2.1 mm i.d., 1.7 µm; Waters Corporation) maintained at 30 °C was used as stationary phase. Eluent A was 0.3% acetic acid in water and eluent B was acetonitrile, the following gradient elution was applied (flow rate: 0.3 mL/min): 5.0–100.0% B (0.0–11.0 min), 100.0–5.0% B (11.0–11.5 min), 5% B (11.5–15.0 min). The injection volume was 5 µL and chromatograms were recorded at 200–400 nm. The chromatograms acquired at the UV absorption maxima of each compound were used for data evaluation.
Stock solutions (10 mM in methanol) were diluted with the defined buffer (pH 7.4 for the PAMPA-BBB and pH 6.8 for the PAMPA-GI assays) to obtain the donor solutions (composition: 594.0 μL buffer + 6.0 μL stock solution). The buffers were prepared as follows: pH = 6.8: 20.2 g Na2HPO4 ∙ 7H2O and 3.4 g NaH2PO4 ∙ H2O dissolved in distilled water to achieve the final volume of 1000.0 mL, pH adjustment with 0.5 M NaOH or 0.5 M HCl; pH = 7.4: one PBS tablet (Phosphate Buffered Saline, pH 7.4; Sigma Aldrich) dissolved in 200.0 mL distilled water. Donor solutions were filtered through Phenex-RC 15 mm, 0.2 μm syringe filters (Gen-Lab Ltd., Budapest, Hungary).

The subject of data set [6] is MDA-MB-231 human breast adenocarcinoma cells. Kind of data set: in vitro cytostatic (antiproliferative) activity, Alamar Blue (resazurin) assay, MDA-MB 231. It is filed as cell-based. Conditions: in vitro cytostatic activity, Alamar Blue (resazurin) assay, MDA-MB 231 breast carcinoma cell culture, read-out: IC50 (µM) MDA-MB 231. Here is the method: as §4, §6, §8, §9

The test system of data set [7] is HT-29 colorectal carcinoma cells. Kind of data set: in vitro cytostatic (antiproliferative) activity, Alamar Blue (resazurin) assay, HT-29. It is filed as cell-based. As to conditions: Homo sapiens; in vitro cytostatic activity, Alamar Blue (resazurin) assay, HT-29 colon carcinoma cell culture; read-out: IC50 (µM) HT-29. Here is the method:
as §4, §6, §8, §9

The subject of data set [8] is A2058 human melanoma cells. Kind of data set: in vitro cytostatic (antiproliferative) activity, Alamar Blue (resazurin) assay, A2058. It is filed as cell-based. Here is the method:
as §4, §6, §8, §9

Where [9] appears, read: in vitro cytostatic activity, Alamar Blue (resazurin) assay, A2058 melanoma cell culture, read-out: IC50 (µM) A2058.

SMILES strings stand for the structures. Where two headings read alike, the source gives them in different places.

With `C/C=C/C1=CC=C/C(=C2\C(=O)CNC2=O)O1` [vermelhotin], the IC50 in the data set on cell culture was 12 to 20 µM.
Take `O=c1c(O[C@@H]2OC[C@@H](O)[C@H](O)[C@H]2O)c(-c2ccc(O)c(O)c2)oc2cc(O)cc(O)c12` [Compound 74, quercetin-3-O-xyloside (reynoutrin)]: in [1] (donor pH 7.4, acceptor pH 7.4, 37 °C, 4 h, n.d. = not detected in the acceptor phase), the “logPe PAMPA-BBB (n = 9)” value is “not detected in the acceptor phase”. In addition, the “effect on the tumor cell lines” value in data set [2] is “no effect”. The “logPe PAMPA-GI (n = 9)” value in data set [3] (donor pH 6.8, acceptor pH 7.4, 37 °C, 4 h, n.d. = not detected in the acceptor phase) is “not detected in the acceptor phase”. For the same compound, the “IC50 (cytostatic activity) on the Vero E6 cells” value in data set [4] (selectivity) is listed as “not cytostatic”. Moreover, in data set [5] (pH 7.4), the “degradation in the pH 7.4 buffer” value was “significant degree of degradation”.
Take `CCOC(=O)c1cc(O)c(O)c(O)c1` [Compound 58, ethyl gallate]: the figures for the Papp at 4 h, 100 µM in data set [1] and in [3] were 1.7 ×10⁻⁶ cm/s and 3.72 ×10⁻⁶ cm/s, respectively. In addition, the IC50 is > 100 µM in [6], > 100 µM in data set [7], 102.5 ± 0.7 µM in [8] (setting [9]) and 82.1 ± 5.7 µM in data set [4]. The inhibition at 100 µM in data set [8] (read-out: % inhibition at 100 µM, 100 µM, A2058 cell culture) was 56.4%. Moreover, in data set [5] (PAMPA, 100 µM), the “additional minor compounds appeared in the aqueous solutions prepared for the PAMPA experiments” value is < 5%.
As for `O=C1C=CC(=O)c2c(O)cccc21` [Compound 141, juglone], the Papp at 4 h, 100 µM was 77.6 ×10⁻⁶ cm/s in data set [1] and 38.9 ×10⁻⁶ cm/s in data set [3]. In addition, the IC50 is 9.9 ± 0.7 µM in data set [6]; 0.53 ± 0.1 µM in data set [7]; 15.5 µM in data set [8] (A2058 melanoma, treatment overnight, then 72 h culture, Alamar Blue, read-out: IC50 (antiproliferative effect) on the melanoma culture); 13.5 ± 0.7 µM in data set [8] (setting [9]); 3.7 ± 0.7 µM in data set [4]. Also, in data set [5] (based on UHPLC-DAD, aqueous donor solutions), the “additional minor compounds appeared in the aqueous solutions prepared for the PAMPA experiments” value is < 10%.

Usually inhibition stands for the change of the read-out against control, counted positive when it falls.
